Assay results from patent US9089509B2, “Method of treatment of age-related macular degeneration” (YEDA RESEARCH AND DEVELOPMENT CO., LTD., priority 2006, dated 2015).

Tests used:
microglia [1] = assay: CD11c expression and morphology in primary culture of mouse microglia; assay type: cell-based
Procedure: Brains from neonatal (P0-P1) C57Bl/6J mice were stripped of their meninges and minced with scissors under a dissecting microscope (Zeiss, Stemi DV4, Germany) in Leibovitz-15 medium (Biological Industries, Kibbutz Beit Ha-Emek, Israel). After trypsinization (0.5% trypsin, 10 min, 37° C./5% CO2), the tissue was triturated. The cell suspension was washed in culture medium for glial cells [DMEM supplemented with 10% fetal calf serum (FCS; Sigma-Aldrich, Rehovot), L-glutamine (1 mM), sodium pyruvate (1 mM), penicillin (100 U/ml), and streptomycin ([…])] and cultured at 37° C./5% CO2 in 75-cm^2 Falcon tissue-culture flasks (BD Biosciences) coated with poly-D-lysine (PDL) (10 mg/ml; Sigma-Aldrich, Rehovot) in borate buffer (2.37 g borax and 1.55 g boric acid dissolved in 500 ml sterile water, pH 8.4) for 1 h, then rinsed thoroughly with sterile, glass-distilled water. Half of the medium was changed after 6 h in culture and every 2nd day thereafter, starting on day 2, for a total culture time of 10-14 days. Microglia were shaken off the primary mixed brain glial cell cultures (150 rpm, 37° C., 6 h) with maximum yields between days 10 and 14, seeded (10^5 cells/ml) onto PDL-pretreated 24-well plates (1 ml/well; Corning, N.Y., N.Y.), and grown in culture medium for microglia [RPMI-1640 medium (Sigma-Aldrich, Rehovot) supplemented with 10% FCS, L-glutamine (1 mM), sodium pyruvate (1 mM), β-mercaptoethanol ([…]), penicillin (100 U/ml), and streptomycin ([…])]. The cells were allowed to adhere to the surface of a PDL-coated culture flask (30 min, 37° C./5% CO2), and non-adherent cells were rinsed off.
Cover slips from co-cultures of NPCs and mouse microglia were washed with PBS, fixed as described above, treated with a permeabilization/blocking solution containing 10% FCS, 2% bovine serum albumin, 1% glycine, and 0.1% Triton X-100 (Sigma-Aldrich, Rehovot), and stained with a combination of mouse anti-[…] (anti-βIII-T) isoform C-terminus antibodies (1:500; Chemicon, Temecula, Calif.), rat anti-CD11b (MAC1; 1:50; BD—Pharmingen, Franklin Lakes, N.J.) and hamster anti-CD11c (1:100; eBioscience, San Diego, Calif.). To capture the microglia FITC- or Cy3-conjugated Bandeiraea simplicifolia isolectin B4 (IB-4; 1:50; Sigma-Aldrich, Rehovot) was used. To detect expression of human Aβ anti-Aβ (human amino-acid residues 1-17) (mouse, clone 6E10; Chemicon) was used.
On the basis of our previous findings, we suspected that the switch from a CD11b^+/CD11c^−/IGF-1^− to a CD11b^+/CD11c^+/IGF-I^+ microglial phenotype in the Cop-1 vaccinated Tg-AD mice might be attributable to IL-4. We examined this possibility in vitro. […] In contrast, the expression of CD11c induced by IL-4 was not transient. Quantification of the ability of IL-4 to induce CD11c expression even after the microglia were pretreated with Aβ is shown in FIG. 4D.
Thus, upregulation of CD11c on bone marrow derived myeloid cells by […] will allow the cells to reach injured sites and induce beneficial effect.

microglia [2] = conditions: added to microglia activated by aggregated Aβ (Butovsky et al., 2005); cited from earlier work
microglia [3] = assay: Engulfment of aggregated Aβ(1-40) by activated microglia; assay type: cell-based, mouse; conditions: 10 ng/ml; Aβ(1-40) 5 μg/ml for 1 h, vs untreated microglia (FIG. 5)
Procedure: FIGS. 5A-5B show engulfment of aggregated Aβ by activated microglia. Microglia were treated with IL-4 (10 ng/ml) 24 h after seeding (MG(IL-4)) or were left untreated for 48 h (MG(−)). The media were then replaced by a labeling medium (DMEM containing 10 mg/ml bovine serum albumin), and aggregated Aβ(1-40) was added (5 μg/ml) for 1 h. Following incubation the cultures were fixed and immunostained with antibodies directed to human Aβ and co-stained for microglia (IB-4). (FIG. 5A) Confocal photomicrographs. (FIG. 5B) Quantitative analysis expressed as intensity per cell. Results of one of two experiments, each containing eight replicates (20-30 cells per replicate) per group are presented (means±SD).
Brains from neonatal (P0-P1) C57Bl/6J mice were stripped of their meninges and minced with scissors under a dissecting microscope (Zeiss, Stemi DV4, Germany) in Leibovitz-15 medium (Biological Industries, Kibbutz Beit Ha-Emek, Israel). After trypsinization (0.5% trypsin, 10 min, 37° C./5% CO2), the tissue was triturated. […]

[4] = system: neural stem/progenitor cells (NPCs) co-cultured with microglia; assay: Co-culture of GFP-expressing neural progenitor cells with treated microglia, neurogenesis (GFP+/βIII-T+ cells); assay type: cell-based, mouse; conditions: cytokine 10 ng/ml added for 48 h after 48 h aggregated Aβ(1-40) 5 μM
Procedure: Coronal sections (2 mm thick) of tissue containing the subventricular zone of the lateral ventricle were obtained from the brains of adult C57Bl/6J mice. The tissue was minced and then incubated for digestion at 37° C., 5% CO2 for 45 min in Earle's balanced salt solution containing 0.94 mg/ml papain (Worthington, Lakewood, N.J.) and 0.18 mg/ml of L-cysteine and EDTA. After centrifugation at 110×g for 15 min at room temperature, the tissue was mechanically dissociated by pipette trituration. Cells obtained from single-cell suspensions were plated (3500 cells/cm^2) in 75-cm^2 Falcon tissue-culture flasks (BD Biosciences, San Diego, Calif.), in neural stem/progenitor cell (NPC)-culturing medium [Dulbecco's modified Eagles's medium (DMEM)/F12 medium (Gibco/Invitrogen, Carlsbad, Calif.) containing 2 mM L-glutamine, 0.6% glucose, 9.6 μg/ml putrescine, 6.3 ng/ml progesterone, 5.2 ng/ml sodium selenite, 0.02 mg/ml insulin, 0.1 mg/ml transferrin, 2 μg/ml heparin (all from Sigma-Aldrich, Rehovot, Israel), fibroblast growth factor-2 (human recombinant, 20 ng/ml), and epidermal growth factor (human recombinant, 20 ng/ml; both from Peprotech, Rocky Hill, N.J.)]. Spheres were passaged every 4-6 days and replated as single cells. Green fluorescent protein (GFP)-expressing NPCs were obtained as previously described (Pluchino et al., 2003).
Brains from neonatal (P0-P1) C57Bl/6J mice were stripped of their meninges and minced with scissors under a dissecting microscope (Zeiss, Stemi DV4, Germany) in Leibovitz-15 medium (Biological Industries, Kibbutz Beit Ha-Emek, Israel). After trypsinization (0.5% trypsin, 10 min, 37° C./5% CO2), the tissue was triturated. The cell suspension was washed in culture medium for glial cells [DMEM supplemented with 10% fetal calf serum (FCS; Sigma-Aldrich, Rehovot), L-glutamine (1 mM), sodium pyruvate (1 mM), penicillin (100 U/ml), and streptomycin ([…])] and cultured at 37° C./5% CO2 in 75-cm^2 Falcon tissue-culture flasks (BD Biosciences) coated with poly-D-lysine (PDL) (10 mg/ml; Sigma-Aldrich, Rehovot) in borate buffer (2.37 g borax and 1.55 g boric acid dissolved in 500 ml sterile water, pH 8.4) for 1 h, then rinsed thoroughly with sterile, glass-distilled water. Half of the medium was changed after 6 h in culture and every 2nd day thereafter, starting on day 2, for a total culture time of 10-14 days. […]

IL-4: recombinant mouse IL-4, a cytokine derived from T-helper (Th)-2 cells
CD11c expression by microglia (microglia [1]; 5-day microglia cultures, vs untreated (FIG. 4A)): abundantly expressed | persistence of induced CD11c expression as a function of time in culture (microglia [1]; FIG. 4C): not transient | CD11c expression by microglia pre-exposed to Aβ (microglia [1]; cytokine added 3 days after exposure to aggregated Aβ(1-40) (FIG. 4B, 4D)): able to induce them to express CD11c | amoeboid morphology of Aβ-treated microglia (microglia [1]; on addition of cytokine, dendritic-like morphology (FIG. 4B)): reversible on addition of IL-4 | effect on Aβ-induced down-regulation of IGF-I, up-regulation of TNF-α and failure to act as APCs (microglia [2]): can reverse the down-regulation of IGF-I expression | ability of microglia to engulf aggregated Aβ(1-40) (intracellular immunoreactive Aβ) (microglia [3]): did not interfere with the ability of microglia to engulf Aβ | counteracting the negative effect of Aβ-activated microglia on NPC survival and differentiation [4]: partially counteracted
